Test results from paper PMC6027297, “A Short Peptide Inhibitor as an Activity-Based Probe for Matriptase-2” (Pharmaceuticals, 2018).
pKi: −log10 of the molar value. Residues, ends and D or L forms follow the SMILES beside them. *: point of attachment. Biotin = O=C1N[C@H]2[C@H](CS[C@H]2CCCCC(=O)*)N1; CH2Cl = ClC*

Tests used:
matriptase-2 (MT-2) [1] = test: Western blot detection of biotin-RQRR-CMK-labeled MT-2 in HEK-cell supernatant (Strep-Tactin/AP); conditions: 30 µg HEK-MT-2 supernatant, 50 µM aprotinin for 2 h before probe (5 µM, 30 min)
Method: Similar to antibody staining addressing the myc tag, the biotin tag which was chemically introduced by biotin-RQRR-CMK was employed for the detection of MT-2 after western blotting. For this purpose, 30 µg of HEK-mock or HEK-MT-2 supernatants were incubated with or without biotin-RQRR-CMK prior to SDS-PAGE. After transfer to a nitrocellulose membrane, the blot was incubated with a conjugate of Strep-Tactin with alkaline phosphatase (AP). […] This band was only observed in the supernatant of HEK cells expressing active MT-2 that was treated with the probe.
(§1) To confirm that biotin-RQRR-CMK binds to the active site of MT-2, we added aprotinin to the supernatants of HEK-MT-2 cells. Treatment with aprotinin or DMSO was carried out 2 h prior to probe treatment. […] MT-2 was present in the supernatant of transfected HEK cells incubated with the probe and/or aprotinin (Figure 6: panel a).
Stably transfected human embryonic kidney (HEK) cells expressing MT-2 or an empty vector construct were cultivated in Dulbecco’s Modified Eagle’s Medium (DMEM) containing fetal bovine serum (FBS) as well as penicillin and streptadivin in a concentration of […] at 37 °C. […] The protein concentration of the obtained protein mixture was determined by absorption measurements using Roti-Nanoquant Bradford solution. […]

MT-2 = conditions: active-site directed inhibitor of serine proteases; ref [1],[38]; cited from earlier work
Method: as §1

matriptase-2 (MT-2) [2] = target: T1, matriptase-2 (MT-2) (Homo sapiens, UniProt Q8IU80); test: MT-2 activity on the surface of transfected HEK cells; assay type: cell-based
T1 construct: expressed in transfected cells; host or cells: stably transfected HEK cells
T1 sequence (Q8IU80 1-802 isoform Q8IU80-1): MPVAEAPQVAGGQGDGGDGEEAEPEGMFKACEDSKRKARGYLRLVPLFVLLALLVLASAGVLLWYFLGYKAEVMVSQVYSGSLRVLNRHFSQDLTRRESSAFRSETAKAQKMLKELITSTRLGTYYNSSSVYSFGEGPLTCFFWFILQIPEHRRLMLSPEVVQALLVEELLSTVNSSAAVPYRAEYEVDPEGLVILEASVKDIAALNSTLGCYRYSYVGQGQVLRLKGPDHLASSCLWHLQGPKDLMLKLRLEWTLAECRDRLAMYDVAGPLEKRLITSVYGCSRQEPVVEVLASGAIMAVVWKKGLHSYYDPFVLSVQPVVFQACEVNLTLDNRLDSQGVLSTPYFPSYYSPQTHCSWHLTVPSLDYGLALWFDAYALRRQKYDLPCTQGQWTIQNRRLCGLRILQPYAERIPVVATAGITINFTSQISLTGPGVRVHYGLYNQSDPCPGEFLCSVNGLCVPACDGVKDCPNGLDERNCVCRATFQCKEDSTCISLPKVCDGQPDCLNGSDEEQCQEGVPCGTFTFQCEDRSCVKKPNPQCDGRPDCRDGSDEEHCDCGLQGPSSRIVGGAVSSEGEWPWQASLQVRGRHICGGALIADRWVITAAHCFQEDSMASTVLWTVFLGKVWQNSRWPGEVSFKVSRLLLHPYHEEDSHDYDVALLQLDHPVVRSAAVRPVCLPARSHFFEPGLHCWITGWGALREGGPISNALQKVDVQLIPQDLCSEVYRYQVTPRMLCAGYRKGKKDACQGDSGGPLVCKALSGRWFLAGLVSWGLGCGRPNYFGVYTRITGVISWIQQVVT
Method: To further investigate the inhibitory potency of the probe in an in vitro approach, MT-2 activity was measured on the surface of stably transfected HEK cells expressing MT-2. Different probe concentrations were applied (Figure 3).
To measure MT-2 activity at the cell surface, HEK cells were seeded in 96 well cell culture plates and cultivated at 37 °C in DMEM medium until a confluence of approximately 70% was reached. After two washing steps with PBS and two further days of incubation in Opti-MEM medium at 37 °C, the culture medium was removed and the cells were washed two times with PBS. MT-2 assay buffer, biotin-RQRR-CMK and DMSO were then directly added to the cells before the reaction was started by adding substrate solution in a final concentration of 40 µM to each well. The conversion of the substrate by MT-2 was followed over a time of 50 min at 37 °C.

matriptase-2 (MT-2) [3] = target: T2, matriptase-2 (MT-2) (Homo sapiens, UniProt Q8IU80); test: MT-2 activity in supernatant of transfected HEK cells (fluorogenic substrate Boc-Gln-Ala-Arg-AMC); assay type: biochemical; conditions: probe 25–100 nM, Boc-Gln-Ala-Arg-AMC 40 µM, NaCl 150 mM, TRIS 50 mM, pH 8.0, 10 µg supernatant, 37 °C, 50 min, ex 340 nm, em 460 nm, non-linear regression of progress curves
T2 construct: This fragment consists of the catalytic and the three LDLRA domains of MT-2; made in house; host or cells: stably transfected HEK cells; concentrated culture supernatant, not purified
T2 sequence (Q8IU80 577-811 limits assumed): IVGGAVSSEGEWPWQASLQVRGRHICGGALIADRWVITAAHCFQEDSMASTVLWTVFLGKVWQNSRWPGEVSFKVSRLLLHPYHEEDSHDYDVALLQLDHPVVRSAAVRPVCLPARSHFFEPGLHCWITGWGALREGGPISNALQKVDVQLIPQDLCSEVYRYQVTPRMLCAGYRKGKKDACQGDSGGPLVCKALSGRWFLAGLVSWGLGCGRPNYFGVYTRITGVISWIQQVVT
T2 sequence (Q8IU80 438-576 partner limits assumed): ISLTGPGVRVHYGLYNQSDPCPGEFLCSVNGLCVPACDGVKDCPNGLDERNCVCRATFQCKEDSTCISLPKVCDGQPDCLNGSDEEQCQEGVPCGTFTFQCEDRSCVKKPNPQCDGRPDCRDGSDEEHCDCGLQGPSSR
Method: We used stably transfected human embryonic kidney (HEK) cells as the source for MT-2 [14]. […] Initially, the inhibitory potency of biotin-RQRR-CMK against MT-2 was assessed. For this purpose, we determined MT-2 activity in the supernatant of transfected HEK cells using a tripeptidic fluorogenic substrate. Probe concentrations of 25 nM to 100 nM were applied. Values kobs were obtained from non-linear regression of the progress curves of the supernatant experiment using the equation [P] = v0 (1 − e^−kobs t)/kobs + d(1) where [P] is the product concentration, v0 is the initial rate and d is the offset. […]
Stably transfected human embryonic kidney (HEK) cells expressing MT-2 or an empty vector construct were cultivated in Dulbecco’s Modified Eagle’s Medium (DMEM) containing fetal bovine serum (FBS) as well as penicillin and streptadivin in a concentration of […] at 37 °C. […] The protein concentration of the obtained protein mixture was determined by absorption measurements using Roti-Nanoquant Bradford solution.
Kinetic measurements were performed on a Fluostar Optima plate reader (BMG Lab Tech, Offenburg, Germany) in 96 well plates. […]

aprotinin
protection of MT-2 from labeling by biotin-RQRR-CMK (matriptase-2 (MT-2) [1]): labeled MT-2 fragment which was missing in HEK-MT-2 supernatants after aprotinin treatment | inhibition of MT-2 (MT-2): has been shown to inhibit MT-2

N=C(N)NCCC[C@H](NC(=O)[C@H](CCCNC(=N)N)NC(=O)[C@H](CCC(N)=O)NC(=O)[C@H](CCCNC(=N)N)NC(=O)CCCC[C@@H]1SC[C@@H]2NC(=O)N[C@@H]21)C(=O)CCl [biotin-RQRR-CMK] (Biotin-RQRR-CH2Cl)
pKi (matriptase-2 (MT-2) [2]; surface of stably transfected HEK cells, probe 100–600 nM, substrate 40 µM, MT-2 assay buffer, 37 °C, 50 min, linear regression of progress curves, equation (3)): 7.05 | Ki (in words) (matriptase-2 (MT-2) [2]; surface of transfected HEK cells): two-digit nanomolar Ki value | kinac/Ki (second-order rate constant of inactivation) (matriptase-2 (MT-2) [3]): 10,800 M^−1 s^−1
